Data as given in US11098032B2, “Pyran dervatives as CYP11A1 (cytochrome P450 monooxygenase 11A1) inhibitors” (ORION CORPORATION, priority 2016, dated 2021).

target: T1, CYP11A1 (Homo sapiens, UniProt P05108); assay: CYP11A1 inhibition: modified isocaproic acid release assay (IARA) in H295R cells; format: cell-based; conditions: human H295R adrenocortical carcinoma cells treated three days, 3 nM [24,25-3H]-labelled cholesterol, 1% DMSO, 10 concentrations in duplicates; read-out: IC50 of the test compounds on CYP11A1 inhibition
T1 construct: human H295R adrenocortical carcinoma cell line was used as source of enzyme; endogenous in cells; host or cells: H295R human adrenocortical carcinoma cells
T1 sequence (P05108 40-521): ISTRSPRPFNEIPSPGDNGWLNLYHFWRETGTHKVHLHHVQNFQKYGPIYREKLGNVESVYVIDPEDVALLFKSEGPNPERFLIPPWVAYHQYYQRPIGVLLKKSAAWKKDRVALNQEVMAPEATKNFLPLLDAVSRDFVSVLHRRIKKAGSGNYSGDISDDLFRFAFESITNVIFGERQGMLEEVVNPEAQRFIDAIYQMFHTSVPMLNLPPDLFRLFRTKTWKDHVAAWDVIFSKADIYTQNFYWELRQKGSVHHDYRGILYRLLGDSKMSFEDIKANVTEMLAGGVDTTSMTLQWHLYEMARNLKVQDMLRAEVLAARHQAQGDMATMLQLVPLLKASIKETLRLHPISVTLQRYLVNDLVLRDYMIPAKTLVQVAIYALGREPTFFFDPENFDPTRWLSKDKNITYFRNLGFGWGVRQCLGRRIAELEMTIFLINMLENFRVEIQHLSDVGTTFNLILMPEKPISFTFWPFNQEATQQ
Description: The ability of the test compounds to inhibit conversion of cholesterole to pregnenolone and isocaproic acid was measured by modification of isocaproic acid release assay (IARA) described by Ruangwises et. al. (Biology of Reproduction 1991; 45(1):143-50) except that human H295R adrenocortical carcinoma cell line was used as source of enzyme and extraction was done with dextran-coated charcoal suspension (Isomaa, V. et al., Endocrinology 1982; 111(3):833-843). […] To determine the half maximal inhibitory concentration (IC50) of the test compounds on CYP11A1 inhibition, the cells were treated for three days with increasing concentrations of the test compounds in the presence of 3 nM [24,25-3H]-labelled cholesterol (American Radiolabelled Chemicals). The final DMSO concentration was 1%. Cell culture medium was extracted with dextran-coated charcoal suspension and the radiolabelled isocaproic acid was determined by mixing 100 μl of supernatant fraction in 200 μl of scintillation fluid (OptiPhase SuperMix, Perkin Elmer). Radioactivity was measured using a Microbeta scintillation counter (1450 MicroBeta Trilux, Wallac). All the test compounds were studied at 10 concentrations in duplicates.

Compound | IC50
O=c1cc(CN2Cc3ccccc3C2)occ1OCC1CN(S(=O)(=O)c2csc(Cl)c2)C1 [Compound 30, 5-((1-((5-Chlorothiophen-3-yl)sulfonyl)azetidin-3-yl)methoxy)-2-(isoindolin-2-ylmethyl)-4H-pyran-4-one] | 150 to 300 nM
CN(C)C(=O)c1ccc(COc2coc(CN3Cc4cccc(F)c4C3)cc2=O)cc1 [Compound 32, 4-(((6-((4-Fluoroisoindolin-2-yl)methyl)-4-oxo-4H-pyran-3-yl)oxy)methyl)-N,N-dimethylbenzamide] | 301 to 2000 nM
CC(C)(O)c1ccc(COc2coc(CN3Cc4cccc(F)c4C3)cc2=O)cc1 [Compound 33, 2-((4-Fluoroisoindolin-2-yl)methyl)-5-((4-(2-hydroxypropan-2-yl)benzyl)oxy)-4H-pyran-4-one] | 301 to 2000 nM
CCOC(=O)c1cnn(-c2ccc(COc3coc(CN4Cc5ccccc5C4)cc3=O)cc2)c1 [Compound 40, Ethyl 1-(4-(((6-(isoindolin-2-ylmethyl)-4-oxo-4H-pyran-3-yl)oxy)methyl)phenyl)-1H-pyrazole-4-carboxylate] | 301 to 2000 nM
Cc1ccc(COc2coc(CN3CCc4ccccc4C3)cc2=O)cc1 [Compound 42, 2-((3,4-Dihydroisoquinolin-2(1H)-yl)methyl)-5-((4-methylbenzyl)oxy)-4H-pyran-4-one] | 301 to 2000 nM
NC(=O)c1ccc(COc2coc(CN3CCc4ccccc4C3)cc2=O)cc1 [Compound 43, 4-(((6-((3,4-Dihydroisoquinolin-2(1H)-yl)methyl)-4-oxo-4H-pyran-3-yl)oxy)-methyl)benzamide] | 301 to 2000 nM
CC(C)(O)c1ccc(COc2coc(CN3CCc4ccccc4C3)cc2=O)cc1 [Compound 44, 2-((3,4-dihydroisoquinolin-2(1H)-yl)methyl)-5-((4-(2-hydroxypropan-2-yl)-benzyl)oxy)-4H-pyran-4-one] | < 150 nM
N#Cc1ccc(COc2coc(CN3Cc4ccccc4C3)cc2=O)cc1 [Compound 45, 4-(((6-(Isoindolin-2-ylmethyl)-4-oxo-4H-pyran-3-yl)oxy)methyl)benzonitrile] | 301 to 2000 nM
CC(C)(O)Cc1ccc(COc2coc(CN3CCc4ccccc4C3)cc2=O)cc1 [Compound 46, 2-((3,4-Dihydroisoquinolin-2(1H)-yl)methyl)-5-((4-(2-hydroxy-2-methyl-propyl)benzyl)oxy)-4H-pyran-4-one] | 150 to 300 nM
CNC(=O)c1ccc(COc2coc(CN3CCc4ccccc4C3)cc2=O)cc1 [Compound 48, 4-(((6-((3,4-Dihydroisoquinolin-2(1H)-yl)methyl)-4-oxo-4H-pyran-3-yl)oxy)-methyl)-N-methylbenzamide] | 301 to 2000 nM
CC(C)(O)c1ccc(COc2coc(CN3Cc4ccccc4C3)cc2=O)cc1 [Compound 49, 5-((4-(2-Hydroxypropan-2-yl)benzyl)oxy)-2-(isoindolin-2-ylmethyl)-4H-pyran-4-one] | < 150 nM
N#Cc1ccc(COc2coc(CN3CCc4ccccc4C3)cc2=O)c(F)c1 [Compound 51, 4-(((6-((3,4-Dihydroisoquinolin-2(1H)-yl)methyl)-4-oxo-4H-pyran-3-yl)oxy)-methyl)-3-fluorobenzonitrile] | 301 to 2000 nM
COc1ccc2c(c1)CCN(Cc1cc(=O)c(OCc3ccc(C(C)(C)O)cc3)co1)C2 [Compound 52, 5-((4-(2-Hydroxypropan-2-yl)benzyl)oxy)-2-((6-methoxy-3,4-dihydroisoquinolin-2(1H)-yl)methyl)-4H-pyran-4-one] | 301 to 2000 nM
COc1ccc2c(c1)CCN(Cc1cc(=O)c(OCc3ccc(C#N)cc3)co1)C2 [Compound 53, 4-(((6-((6-Methoxy-3,4-dihydroisoquinolin-2(1H)-yl)methyl)-4-oxo-4H-pyran-3-yl)oxy)methyl)benzonitrile] | 150 to 300 nM
NC(=O)c1ccc(COc2coc(CN3Cc4ccccc4C3)cc2=O)c(F)c1 [Compound 56, 3-Fluoro-4-(((6-(isoindolin-2-ylmethyl)-4-oxo-4H-pyran-3-yl)oxy)methyl)-benzamide] | 150 to 300 nM
O=c1cc(CN2Cc3ccccc3C2)occ1OCc1ccc(Br)cc1 [Compound 58, 5-((4-Bromobenzyl)oxy)-2-(isoindolin-2-ylmethyl)-4H-pyran-4-one] | 301 to 2000 nM
CC1c2ccccc2CCN1Cc1cc(=O)c(OCc2ccc(C(C)(C)O)cc2)co1 (centres unmarked) [Compound 59, 5-((4-(2-Hydroxypropan-2-yl)benzyl)oxy)-2-((1-methyl-3,4-dihydroisoquinolin-2(1H)-yl)methyl)-4H-pyran-4-one] | 301 to 2000 nM

The remaining lines, values ahead:

IC50 | Compound
150 to 300 nM | CC(=O)c1ccc(COc2coc(CN3Cc4ccccc4C3)cc2=O)cc1 [Compound 31, 5-((4-Acetylbenzyl)oxy)-2-(isoindolin-2-ylmethyl)-4H-pyran-4-one]
150 to 300 nM | CS(=O)(=O)c1ccc(COc2coc(CN3Cc4ccccc4C3)cc2=O)c(F)c1 [Compound 34, 5-((2-Fluoro-4-(methylsulfonyl)benzyl)oxy)-2-(isoindolin-2-ylmethyl)-4H-pyran-4-one]
301 to 2000 nM | O=c1cc(CN2Cc3ccccc3C2)occ1OCC1CCS(=O)(=O)CC1 [Compound 35, 5-((1,1-Dioxidotetrahydro-2H-thiopyran-4-yl)methoxy)-2-(isoindolin-2-yl-methyl)-4H-pyran-4-one]
< 150 nM | O=c1cc(CN2Cc3ccccc3C2)occ1OCC1CCN(S(=O)(=O)C2COC2)CC1 [Compound 36, 2-(Isoindolin-2-ylmethyl)-5-((1-(oxetan-3-ylsulfonyl)piperidin-4-yl)methoxy)-4H-pyran-4-one]
< 150 nM | CS(=O)(=O)c1ccc(COc2coc(CN3Cc4ccc(OC(F)(F)F)cc4C3)cc2=O)cc1 [Compound 37, 5-((4-(Methylsulfonyl)benzyl)oxy)-2-((5-(trifluoromethoxy)isoindolin-2-yl)-methyl)-4H-pyran-4-one]
301 to 2000 nM | O=c1cc(CN2Cc3ccccc3C2)occ1OCc1ccc([N+](=O)[O-])cc1 [Compound 38, 2-(Isoindolin-2-ylmethyl)-5-((4-nitrobenzyl)oxy)-4H-pyran-4-one]
150 to 300 nM | O=c1cc(CN2Cc3ccccc3C2)occ1OCc1ccc(-n2cc(Br)cn2)cc1 [Compound 39, 5-((4-(4-Bromo-1H-pyrazol-1-yl)benzyl)oxy)-2-(isoindolin-2-ylmethyl)-4H-pyran-4-one]
301 to 2000 nM | N#Cc1ccc(COc2coc(CN3CCc4ccccc4C3)cc2=O)cc1 [Compound 41, 4-(((6-((3,4-Dihydroisoquinolin-2(1H)-yl)methyl)-4-oxo-4H-pyran-3-yl)oxy)-methyl)benzonitrile]
< 150 nM | C=C(C)c1ccc(COc2coc(CN3Cc4ccccc4C3)cc2=O)cc1 [Compound 47]
301 to 2000 nM | N#Cc1cccc(COc2coc(CN3CCc4ccccc4C3)cc2=O)c1 [Compound 50, 3-(((6-((3,4-Dihydroisoquinolin-2(1H)-yl)methyl)-4-oxo-4H-pyran-3-yl)oxy)-methyl)benzonitrile]
301 to 2000 nM | NC(=O)c1ccc(COc2coc(CN3CCc4ccccc4C3)cc2=O)c(F)c1 [Compound 55, 4-(((6-((3,4-Dihydroisoquinolin-2(1H)-yl)methyl)-4-oxo-4H-pyran-3-yl)oxy)-methyl)-3-fluorobenzamide]
301 to 2000 nM | NC(=O)c1ccc(COc2coc(CN3Cc4ccccc4C3)cc2=O)cc1 [Compound 57, 4-(((6-(Isoindolin-2-ylmethyl)-4-oxo-4H-pyran-3-yl)oxy)methyl)benzamide]
